Consider nine compounds from US12129237B2, “Substituted diaminocarboxamide and diaminocarbonitrile pyrimidines, compositions thereof, and methods of treatment therewith” (SIGNAL PHARMACEUTICALS, LLC, priority 2011, dated 2024).

Each structure is given as a SMILES string. Some results are limits rather than exact numbers.

The target in the assay is T1, JNK1 (Homo sapiens, UniProt P45983).
T1 construct: purchased Carna Biosciences
T1 sequence (P45983 whole entry): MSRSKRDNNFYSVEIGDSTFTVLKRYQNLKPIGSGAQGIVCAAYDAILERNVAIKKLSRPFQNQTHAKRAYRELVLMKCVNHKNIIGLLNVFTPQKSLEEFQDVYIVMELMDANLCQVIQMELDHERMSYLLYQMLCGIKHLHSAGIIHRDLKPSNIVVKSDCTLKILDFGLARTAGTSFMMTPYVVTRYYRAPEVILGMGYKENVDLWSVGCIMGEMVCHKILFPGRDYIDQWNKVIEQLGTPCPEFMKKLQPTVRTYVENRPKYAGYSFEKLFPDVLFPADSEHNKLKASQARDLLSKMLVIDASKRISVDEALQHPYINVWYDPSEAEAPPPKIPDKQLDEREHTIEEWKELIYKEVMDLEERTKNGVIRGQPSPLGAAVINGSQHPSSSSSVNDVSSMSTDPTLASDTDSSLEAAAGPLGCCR
Kind of assay: JNK1 biochemical assays (one or more of: time resolved fluorescence, Z'-LYTE Cascade, radioactive). The note with it: Table 3; JNK1 IC50 activity level; read-out: Act. Level.
Turning to `CO[C@H]1CC[C@](C)(Nc2ncc(C#N)c(N[C@@H]3CCC[C@H](O)C3)n2)CC1` [Example C-57, 4-((1R,3S)-3-hydroxycyclohexylamino)-2-((1r,4R)-4-methoxy-1-methylcyclohexylamino) pyrimidine-5-carbonitrile], the IC50 lay within 0.2 to 0.8 µM. The figure for `N#Cc1cnc(N[C@H]2CC[C@H](O)CC2)nc1NC1CC(F)(F)C1` [Example C-58, 4-(3,3-difluorocyclobutylamino)-2-((1r,4r)-4-hydroxycyclohexylamino) pyrimidine-5-carbonitrile] is 1 to 10 µM; for `CC(C)(C)Nc1ncc(C#N)c(N[C@@H]2CCC[C@](C)(O)C2)n1` [Example C-59, 2-(tert-butylamino)-4-((1R,3S)-3-hydroxy-3-methylcyclohexylamino) pyrimidine-5-carbonitrile] it is 0.2 to 0.8 µM; for `CC(C)CCNc1nc(N[C@H]2CC[C@H](O)CC2)ncc1C#N` [Example C-60, 2-((1r,4r)-4-hydroxycyclohexylamino)-4-(isopentylamino)pyrimidine-5-carbonitrile] it is 1 to 10 µM.

As for `N#Cc1cnc(N[C@H]2CC[C@H](O)CC2)nc1NC12CC(C1)C2` [Example C-61, 4-(bicyclo[1.1.1]pentan-1-ylamino)-2-((1r,4r)-4-hydroxycyclohexylamino) pyrimidine-5-carbonitrile], the IC50 was 0.2 to 0.8 µM. With `CCC(C)(C)Nc1nc(N[C@H]2CC[C@H](O)CC2)ncc1C#N` [Example C-62, 2-((1r,4r)-4-hydroxycyclohexylamino)-4-(tert-pentylamino)pyrimidine-5-carbonitrile] the figure was less than 0.2 µM; with `CC(C)(C)Nc1ncc(C#N)c(NC(C)(C)C)n1` [Example C-63, 2,4-bis(tert-butylamino)pyrimidine-5-carbonitrile], 0.2 to 0.8 µM. The figure for `N#Cc1cnc(NC2CCC(F)(F)CC2)nc1N[C@@H]1CCC[C@@H]1CO` [Example C-64, 2-(4,4-difluorocyclohexylamino)-4-((1R,2S)-2-(hydroxymethyl)cyclopentylamino) pyrimidine-5-carbonitrile] is 0.2 to 0.8 µM; for `C[C@@H]1CC[C@@H](Nc2nc(NC3CCC3)ncc2C#N)C[C@H]1O` [Example C-65, 2-(cyclobutylamino)-4-((1R,3R,4R)-3-hydroxy-4-methylcyclohexylamino) pyrimidine-5-carbonitrile] it is less than 0.2 µM.
